Assay results: US8119624B2, “Fused phenyl amido heterocyclic compounds” (Pfizer Inc., priority 2006, dated 2012)
Where two headings read alike, the source gives them in different places.

Target: T1, Full-length glucokinase (beta cell isoform) (Homo sapiens, UniProt P35557)
T1 construct: Full-length glucokinase (beta cell isoform) was His-tagged at N-terminus; His tag (N); made in house
T1 sequence (P35557 1-465): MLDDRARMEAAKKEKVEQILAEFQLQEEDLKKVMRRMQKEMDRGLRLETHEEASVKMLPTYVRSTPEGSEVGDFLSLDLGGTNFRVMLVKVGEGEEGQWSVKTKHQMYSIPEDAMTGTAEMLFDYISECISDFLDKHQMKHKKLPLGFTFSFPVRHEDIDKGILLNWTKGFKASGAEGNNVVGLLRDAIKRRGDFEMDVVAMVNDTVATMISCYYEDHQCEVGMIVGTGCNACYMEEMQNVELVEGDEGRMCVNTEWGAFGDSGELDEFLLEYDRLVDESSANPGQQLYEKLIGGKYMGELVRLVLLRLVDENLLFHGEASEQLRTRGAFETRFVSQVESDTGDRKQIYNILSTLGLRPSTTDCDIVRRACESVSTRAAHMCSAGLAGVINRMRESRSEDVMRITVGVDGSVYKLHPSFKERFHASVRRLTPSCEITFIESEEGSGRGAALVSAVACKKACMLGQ
Assay: Glucokinase biochemical assay (PK/LDH-coupled, NADH depletion at 340 nm): % activation, EC50, % max activation
Conditions: 5 mM glucose; for activation at 10 µM: read-out: % Activation at 10 uM; for EC50: GK activation, read-out: EC50; for Emax: fitted maximum activation, read-out: % Max Activation
In short: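 Activation expressed as (Va/Vo−1)×100, where initial rates with and without compound come from NADH depletion at 340 nm over 200–900 s. Enzyme is His-tagged human beta-cell GK, full length, run at room temperature in HEPES buffer with 1 mM ATP and 5 mM glucose. DMSO 1%.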

[1] = 10 uM compound, % Activation=(Va/Vo−1)×100

activation at 10 µM [1] [%] | EC50 [nM] | Emax [%] | % Activation at 10 uM [1] [%] | activation at 10 µM (compound at 10 uM, 1 mM ATP, room temperature) [%] | SMILES
140 | > 10000 | – | – | – | Cc1cc2c(Oc3ccc(S(C)(=O)=O)cn3)cc(C(=O)Nc3cnn(C)n3)cc2o1 [Example 282, 2-Methyl-N-(2-methyl-2H-1,2,3-triazol-4-yl)-4-(5-(methylsulfonyl)pyridin-2-yloxy)benzofuran-6-carboxamide]
275 | 41 | 218 | – | – | COCC1(C)Cc2c(Oc3ccc(C(=O)N4CCC4)c(F)c3)cc(C(=O)Nc3ccn(C)n3)cc2O1 (single isomer, unassigned; (-)) [Example 243, (−)-4-[4-(Azetidine-1-carbonyl)-3-fluoro-phenoxy]-2-methoxymethyl-2-methyl-2,3-dihydro-benzofuran-6-carboxylic acid (1-methyl-1H-pyrazol-3-yl)-amide]
111 | 5900 | 176 | – | – | Cn1ccc(NC(=O)c2cc(OCc3ccccc3)c3c(c2)OC(C)(C)C3)n1 [Example 80, 4-Benzyloxy-2,2-dimethyl-2,3-dihydro-benzofuran-6-carboxylic acid (1-methyl-1H-pyrazol-3-yl)-amide]
51.4 | > 10000 | – | – | – | Cn1ncc(NC(=O)c2cc(Oc3ccc(S(C)(=O)=O)cc3)cc3c2CC(C)(C)O3)n1 [Example 198, 6-(4-Methanesulfonyl-phenoxy)-2,2-dimethyl-2,3-dihydro-benzofuran-4-carboxylic acid (2-methyl-2H-[1,2,3]triazol-4-yl)-amide]
4.2 | – | – | – | – | Cc1ccc(NC(=O)c2cc(Oc3ccc(C(=O)N(C)C)c(F)c3)c3cc(C)sc3c2)nc1 [Example 361, 4-(4-(Dimethylcarbamoyl)-3-fluorophenoxy)-2-methyl-N-(5-methylpyridin-2-yl)benzo[b]thiophene-6-carboxamide]
106 | 180 | 107 | – | – | Cc1cc2c(Oc3ccc(S(=O)(=O)N4CCC4)cc3)cc(C(=O)Nc3cnc(N(C)C)cn3)cc2o1 [Example 299, 4-(4-(Azetidin-1-ylsulfonyl)phenoxy)-N-(5-(dimethylamino)-pyrazin-2-yl)-2-methylbenzofuran-6-carboxamide]
116 | 8800 | 237 | – | – | Cn1ccc(NC(=O)c2cc(OC3CN(S(C)(=O)=O)C3)c3c(c2)OC(C)(C)C3)n1 [Example 193, 4-(1-Methanesulfonyl-azetidin-3-yloxy)-2,2-dimethyl-2,3-dihydro-benzofuran-6-carboxylic acid (1-methyl-1H-pyrazol-3-yl)-amide]
122 | 370 | 129 | – | – | CNC(=O)c1ccc(Oc2cc(C(=O)Nc3ccn(C)n3)cc3c2CC(C)(C)O3)cc1F [Example 69, 4-(3-Fluoro-4-methylcarbamoyl-phenoxy)-2,2-dimethyl-2,3-dihydro-benzofuran-6-carboxylic acid(1-methyl-1H-pyrazol-3-yl)-amide]
47.4 | 320 | 56 | – | – | Cc1cc2cc(C(=O)Nc3ccn(C)n3)cc(Oc3ccc(C(=O)N(C)C)cc3)c2s1 [Example 331, 7-{4-[(Dimethylamino)carbonyl]phenoxy}-2-methyl-N-(1-methyl-1H-pyrazol-3-yl)-1-benzothiophene-5-carboxamide]
49.6 | 310 | 51 | – | – | Cc1cc2c(Oc3ccc(C(=O)N(C)C)c(F)c3)cc(C(=O)Nc3ccn(C)n3)cc2o1 [Example 272, 4-(4-(Dimethylcarbamoyl)-3-fluorophenoxy)-2-methyl-N-(1-methyl-1H-pyrazol-3-yl)benzofuran-6-carboxamide]
158 | 2000 | 177 | – | – | CC1Cc2c(Oc3ccc(S(C)(=O)=O)cc3)cc(C(=O)Nc3ccn(C)n3)cc2O1 (stereo not drawn) [Example 11, 4-(4-Methanesulfonyl-phenoxy)-2-methyl-2,3-dihydro-benzofuran-6-carboxylic acid(1-methyl-1H-pyrazol-3-yl)-amide]
39.1 | 110 | 55 | – | – | Cc1ccc(NC(=O)c2cc(Oc3ccc(C(=O)N(C)C)cc3)c3c(c2)OC(C)(C)C3)nc1 [Example 150, 4-(4-Dimethylcarbamoyl-phenoxy)-2,2-dimethyl-2,3-dihydro-benzofuran-6-carboxylic acid (5-methyl-pyridin-2-yl)-amide]
130 | 44 | 153 | – | – | CCNC(=O)c1c(F)cc(Oc2cc(C(=O)Nc3ccn(C)n3)cc3c2CC(C)(C)O3)cc1F [Example 112, 4-(4-Ethylcarbamoyl-3,5-difluoro-phenoxy)-2,2-dimethyl-2,3-dihydro-benzofuran-6-carboxylic acid (1-methyl-1H-pyrazol-3-yl)-amide]
– | – | – | 5.6 | – | Cc1ccc(NC(=O)c2cc(OCc3ccccc3Cl)cc3c2CCC(C)(C)O3)nc1 [Example 375, 7-(2-Chloro-benzyloxy)-2,2-dimethyl-chroman-5-carboxylic acid(5-methyl-pyridin-2-yl)-amide]
47.2 | 72.7 | 46.5 | – | – | CN(C)C(=O)c1ccc(Oc2cc(C(=O)Nc3ccc(CO)cn3)cc3c2CC(C)(C)O3)cc1F [Example 145, 4-(4-Dimethylcarbamoyl-3-fluoro-phenoxy)-2,2-dimethyl-2,3-dihydro-benzofuran-6-carboxylic acid (5-hydroxymethyl-pyridin-2-yl)-amide]
149 | 1800 | 134 | – | – | CCc1nc(O)cc(COc2cc(C(=O)Nc3ccn(C)n3)cc3c2CC(C)(C)O3)n1 [Example 104, 4-(2-Ethyl-6-hydroxy-pyrimidin-4-ylmethoxy)-2,2-dimethyl-2,3-dihydro-benzofuran-6-carboxylic acid (1-methyl-1H-pyrazol-3-yl)-amide]
171 | 3600 | 213 | – | – | CNC(=O)c1ncc(Oc2cc(C(=O)Nc3ccn(C)n3)cc3c2CC(C)(C)O3)cn1 [Example 171, 5-[2,2-Dimethyl-6-(1-methyl-1H-pyrazol-3-ylcarbamoyl)-2,3-dihydro-benzofuran-4-yloxy]-pyrimidine-2-carboxylic acid methylamide]
107 | 50.7 | 108 | – | – | Cn1ccc(NC(=O)c2cc(Oc3ccc(C(=O)N4CCCC4)c(F)c3)c3c(c2)OC(C)(C)C3)n1 [Example 56, 4-[3-Fluoro-4-(pyrrolidine-1-carbonyl)-phenoxy]-2,2-dimethyl-2,3-dihydro-benzofuran-6-carboxylic acid(1-methyl-1H-pyrazol-3-yl)-amide]
108 | > 10000 | – | – | – | Cc1cc2c(OC3CN(S(C)(=O)=O)C3)cc(C(=O)Nc3ccn(C)n3)cc2o1 [Example 327, 2-Methyl-N-(1-methyl-1H-pyrazol-3-yl)-4-{[1-(methylsulfonyl)-azetidin-3-yl]oxy}-1-benzofuran-6-carboxamide]
– | – | – | – | 32.9 | CC(C)CN1CCc2c(Oc3ccc(S(C)(=O)=O)cc3)cc(C(=O)Nc3ccn(C)n3)cc2C1=O [Example 389, 2-Isobutyl-N-(1-methyl-1H-pyrazol-3-yl)-5-[4-(methylsulfonyl)-phenoxy]-1-oxo-1,2,3,4-tetrahydroisoquinoline-7-carboxamide]
139 | 3900 | 157 | – | – | Cn1ccc(NC(=O)c2cc(OCC3CC3)c3c(c2)OC(C)(C)C3)n1 [Example 89, 4-Cyclopropylmethoxy-2,2-dimethyl-2,3-dihydro-benzofuran-6-carboxylic acid (1-methyl-1H-pyrazol-3-yl)-amide]
159 | 68 | 148 | – | – | Cn1ccc(NC(=O)c2cc(Oc3cnc(C(=O)N4CCC4)c(F)c3)c3c(c2)OC(C)(C)C3)n1 [Example 173, 4-[6-(Azetidine-1-carbonyl)-5-fluoro-pyridin-3-yloxy]-2,2-dimethyl-2,3-dihydro-benzofuran-6-carboxylic acid (1-methyl-1H-pyrazol-3-yl)-amide]
186 | 1700 | 228 | – | – | Cn1ccc(NC(=O)c2cc(Oc3ccc(S(C)(=O)=O)cc3)c3cc(CO)oc3c2)n1 [Example 317, 2-(Hydroxymethyl)-N-(1-methyl-1H-pyrazol-3-yl)-4-[4-(methylsulfonyl)-phenoxy]-1-benzofuran-6-carboxamide]
143 | 2400 | 141 | – | – | Cc1ncccc1COc1cc(C(=O)Nc2ccn(C)n2)cc2c1CC(C)(C)O2 [Example 106, 2,2-Dimethyl-4-(2-methyl-pyridin-3-ylmethoxy)-2,3-dihydro-benzofuran-6-carboxylic acid (1-methyl-1H-pyrazol-3-yl)-amide]
118 | 310 | 138 | – | – | CN(C)C(=O)c1ccc(Oc2cc(C(=O)Nc3ccn(C)n3)cc3c2CC(C)(C)O3)c(F)c1 [Example 46, 4-(4-Dimethylcarbamoyl-2-fluoro-phenoxy)-2,2-dimethyl-2,3-dihydro-benzofuran-6-carboxylic acid(1-methyl-1H-pyrazol-3-yl)-amide]
